Experimental data published in publication PMC4472782, “Antibacterial Characterization of Novel Synthetic Thiazole Compounds against Methicillin-Resistant Staphylococcus pseudintermedius” (PLoS ONE, 2015).
Values after ≈ are worked out from the molar mass of the structure shown. Structures can show the parent of a compound that is named as a salt. Where two headings read alike, the source gives them in different places.

Experiments:
[1] = test system: methicillin-sensitive Staphylococcus pseudintermedius; experiment: MIC by broth microdilution against MSSP clinical isolates; format: cell-based; details: nine MSSP isolates, triplicate
Protocol: (§1) Fifteen isolates of S. pseudintermedius (nine MSSP and six MRSP), identified at the Indiana Animal Disease Diagnostic Laboratory from specimens collected from dogs admitted to the small animal teaching hospital at Purdue University, were included in the study. The specimens were not collected specifically for this research study but were obtained from patients admitted to the hospital for treatment. Clinical specimens were inoculated onto 5% sheep blood agar and incubated at 35°C for 18–24 hours. Standard methods including examination of colony morphology and hemolysis and biochemical tests such as tube coagulase, Voges-Proskauer (VP) and fermentation tests for maltose, trehalose and lactose, were used in addition to matrix-assisted laser desorption ionization time of flight mass spectrometry to identify isolates. Antimicrobial susceptibility was determined by broth microdilution using the SensiTitre (Thermofisher Scientific).
(§2) Bacteria were prepared in phosphate-buffered saline (PBS) until a McFarland standard of 0.5 was achieved. The solution was subsequently diluted 1:300 in Mueller-Hinton broth (MHB) to reach a starting inoculum of 1 × 10^5 colony-forming units (CFU/mL). Bacteria were then transferred to a 96-well microtiter plate. Thiazole compounds and antibiotics were added (in triplicate) to wells in the first row of the microtiter plate and then serially diluted along the vertical axis. […] The MIC was categorized as the concentration where there was no visible growth of bacteria observed.

[2] = test system: methicillin-sensitive Staphylococcus pseudintermedius; experiment: MBC determination against MSSP clinical isolates; format: cell-based; details: nine MSSP isolates
Protocol: (§3) The MBC was determined by plating 5 μL from wells on the 96-well microtiter plate (where the MIC was determined) where no growth was observed onto Tryptic soy agar (TSA) plates. […] The MBC was categorized as the concentration where ≥99% reduction in bacterial cell count was observed.

MRSP SP3 [3] = experiment: Post-antibiotic effect against MRSP; format: cell-based, Staphylococcus pseudintermedius; details: 4 × MIC for one hour
Protocol: A tube containing untreated bacterial cells served as a control. Afterward, the compound/antibiotic was washed out by diluting bacteria 1:1000 in MHB. Counts of CFU for all cultures were obtained after washing. Aliquots (100 μL) of bacteria were removed every hour (for 10 hours), serially diluted in PBS, and plated on TSA plates. TSA plates were incubated for 20 hours at 37°C before CFU values were determined.

MRSP SP3 [4] = experiment: Checkerboard assay of thiazole compounds with oxacillin; format: cell-based, Staphylococcus pseudintermedius
Protocol: The relationship between the thiazole compounds and oxacillin was assessed via a standard checkerboard assay. Bacteria (MRSP SP3) equivalent to a McFarland standard of 0.5 were prepared in PBS. The bacteria were next diluted in MHB to achieve a starting cell density of 1 × 10^5 CFU/mL. MHB was transferred to all wells of a 96-well microtiter plate. […] Oxacillin was serially diluted along the abscissa of the microtiter plate while the thiazole compound was serially diluted along the ordinate. The plate was incubated for 22–24 hours at 37°C. The MIC of the test compound in combination with oxacillin was determined as the lowest concentration of each compound/antibiotic where no visible growth of bacteria was observed. The fractional inhibitory concentration index (ƩFIC) was calculated for each combination as described previously. A synergistic relationship was classified as an FIC index less than or equal to 0.5. […]

[5] = human liver microsomes; cited from earlier work
[6] = test system: methicillin-resistant Staphylococcus pseudintermedius; experiment: MBC determination against MRSP clinical isolates; format: cell-based; details: six MRSP isolates
Protocol: as §3

MRSP SP3 [7] = experiment: Time-kill analysis against MRSP; format: cell-based, Staphylococcus pseudintermedius; details: 4 × MIC, MRSP SP3, 24 hour incubation at 37°C
Protocol: MRSP SP3 cells in late logarithmic growth phase were diluted to ~1 × 10^6 CFU/mL and exposed to concentrations equivalent to 4 × MIC (in triplicate) of thiazole compounds 1–6 and rifampicin in MHB. Samples (20 μL) were collected after 0, 2, 4, 6, 8, 10, 12, and 24 hours of incubation at 37°C and subsequently serially diluted in PBS. Bacteria were then transferred to TSA plates and incubated at 37°C for 20–24 hours before viable CFU/mL values were determined.

[8] = design: method as in PMID 24387054; details: phosphate-buffered saline; cited from earlier work
[9] = test system: murine macrophage cell line (J774.A1); experiment: In vitro cytotoxicity analysis (MTS assay); format: cell-based; details: 10 μg/mL, J774.A1, two hours
Protocol: Compounds were assayed at concentrations of 5 μg/mL, 10 μg/mL, 20 μg/mL, and 40 μg/mL against a murine macrophage cell line (J774.A1) (ATCC TIB-67, American Type Culture Collection (ATCC), Manassas, VA, USA) to determine the potential toxic effect in vitro. Cells were cultured in Dulbeco’s modified Eagle’s medium (Sigma-Aldrich, St. Louis, MO, USA) with 10% fetal bovine serum (USA Scientific, Inc.) at 37°C with 5% CO2. Controls received DMSO alone at a concentration equal to that in drug-treated cell samples. The cells were incubated with the compounds in a 96-well plate at 37°C and 5.0% CO2 for two hours prior to addition of the assay reagent MTS 3-(4,5-dimethylthiazol-2-yl)-5-(3-carboxymethoxyphenyl)-2-(4-sulfophenyl)-2H-tetrazolium) (Promega, Madison, WI, USA). Absorbance readings were taken using a kinetic ELISA microplate reader (Molecular Devices, Sunnyvale, CA, USA). The quantity of viable cells after treatment with each compound was expressed as a percentage of the control, DMSO.
All statistical analyses were performed with GraphPad Prism 6.0 (GraphPad Software, La Jolla, CA). Data generated from cytotoxicity analysis of the thiazole compounds against J774.A1 cells and the 260 and 280 nm cell leakage analysis were analyzed using one-way ANOVA, with post hoc Tukey's multiple comparisons test (P < 0.05).

[10] = test system: methicillin-resistant Staphylococcus pseudintermedius; experiment: MIC by broth microdilution against MRSP clinical isolates; format: cell-based; details: six MRSP isolates, triplicate
Protocol: as §1, §2

[11] = Kinetic (turbidimetric) solubility in PBS; format: physicochemical; details: phosphate-buffered saline; highest concentration with no precipitate
Protocol: The absorbance of the PBS-containing plate was measured prior to addition of the test agents to determine the background absorbance. After 2 hours, the presence of precipitate was detected by turbidity (absorbance at 540 nm).

MRSP SP3 [12] = experiment: Re-sensitization of MRSP to oxacillin, broth microdilution; format: cell-based; details: Staphylococcus pseudintermedius, clinical isolate identified as MRSP, read-out: MIC of oxacillin alone
Protocol: MHB was inoculated with MRSP SP3 (5×10^5 CFU/mL), as has been previously described. Aliquots (5 mL) of the bacterial suspension were divided into microcentrifuge tubes. The thiazole compounds tested (at ½ × MIC) were introduced into each tube. After sitting at room temperature for 30 minutes, 1 mL samples from each tube were transferred to a new centrifuge tube prior to addition of oxacillin (at a concentration equivalent to its MIC). Using a 96-well microtiter plate, rows 2–12 were filled with the remaining 4 mL bacterial suspension (containing the thiazole compound). Aliquots (200 μL) from tubes containing both the thiazole compound and oxacillin were transferred to row 1 of the 96-well plate. After aspirating contents in the first row 4–6 times, 100 μL was transferred from wells in row 1 to row 2. This process was repeated to dilute the remaining wells containing no antibiotic. Untreated bacteria served as a control. […] A fold reduction was calculated by comparing the MIC of the antibiotic alone compared to the MIC of the antibiotic given in combination with the thiazole compounds.

Question: Which MIC50 ([1]; lowest concentration inhibiting growth in 50% of isolates) does the source give for `CCCCc1ccc(-c2nc(C)c(/C(C)=N/NC(=N)N)s2)cc1` [Compound 1] here?
Answer: 0.35 µg/mL (≈ 1.06 µM)

Question: And the MIC ([1]; read-out: MIC Range)?
Answer: 0.17 to 1.38 µg/mL (≈ 0.516 to 4.19 µM)

Question: What about the MBC ([2]; Staphylococcus pseudintermedius, lowest concentration that killed 50% of isolates, read-out: MBC50) of the same compound?
Answer: 0.46 µg/mL (≈ 1.4 µM)

Question: What about the “MBC Range” value [2] of the same compound?
Answer: 0.17 to 2.77 µg/mL

Question: And the “Post-antibiotic Effect” value (MRSP SP3 [3])?
Answer: >9 h

Question: And the relationship with oxacillin (MRSP SP3 [4]; checkerboard assay)?
Answer: synergistic

Question: And the ƩFIC (MRSP SP3 [4]; combination with oxacillin, ≤ 0.5 synergistic, > 0.5 to ≤ 4.0 indifference, > 4 antagonistic)?
Answer: 0.19

Question: What about the half-life [5] of the same compound?
Answer: under 30 minutes

Question: And the MBC ([6]; Staphylococcus pseudintermedius, read-out: MBC50)?
Answer: 0.92 µg/mL (≈ 2.79 µM)

Question: And the “MBC Range” value [6]?
Answer: 0.35 to 1.38 µg/mL

Question: And the “time required to completely eliminate MRSP” value (MRSP SP3 [7])?
Answer: four hours

Question: What about the solubility limit [8] of the same compound?
Answer: 20.56 µg/mL (≈ 62.4 µM)

Question: And the “toxicity to murine macrophage cells (MTS assay)” value [9]?
Answer: toxic

Question: What about the MIC50 ([10]; Staphylococcus pseudintermedius, read-out: MIC50) of the same compound?
Answer: 0.69 µg/mL (≈ 2.09 µM)

Question: And the “MIC Range” value [10]?
Answer: 0.35 to 1.38 µg/mL

Question: With `COC(=O)[C@H]1[C@H]2C[C@@H]3c4[nH]c5cc(OC)ccc5c4CCN3C[C@H]2C[C@@H](OC(=O)c2cc(OC)c(OC)c(OC)c2)[C@@H]1OC` [Reserpine, reference compound] as the compound, how does the “solubility limit” value [11] read?
Answer: 19.05 µg/mL (≈ 31.3 µM)

Question: Which MIC (MRSP SP3 [12]) does the source give for `Cc1onc(-c2ccccc2)c1C(=O)N[C@@H]1C(=O)N2[C@@H]1SC(C)(C)[C@@H]2C(=O)O` [oxacillin, oxacillin sodium salt monohydrate] here?
Answer: 128 µg/mL
